Laboratory results from ChEMBL document CHEMBL1137503, “Structure-based design, synthesis, and biological evaluation of peptidomimetic SARS-CoV 3CLpro inhibitors” (Bioorg Med Chem Lett, 2007).

Key:
[1] = target: Replicase polyprotein 1ab (Severe acute respiratory syndrome-related coronavirus, UniProt P0C6X7); assay: Inhibition of SARS-CoV 3C-like protease by FRET based microplate assay
SARS-CoV = assay: Antiviral activity against SARS coronavirus; format: functional, organism-based; conditions: Severe acute respiratory syndrome-related coronavirus

| Compound | IC50 [1] [µM] | IC50 (SARS-CoV) [µM] |
| --- | --- | --- |
| CCOC(=O)/C=C/[C@H](C[C@@H]1CCNC1=O)NC(=O)[C@@H](CC(=O)[C@@H](NC(=O)c1cc(C)on1)C(C)C)Cc1ccccc1 | 870 | 45 |
| CCOC(=O)/C=C/[C@H](C[C@@H]1CCNC1=O)NC(=O)[C@H](CC=C(C)C)CC(=O)[C@@H](NC(=O)c1cc(C)on1)C(C)C | 800 | 70 |
| CCOC(=O)/C=C/[C@H](C[C@@H]1CCNC1=O)NC(=O)[C@H](Cc1ccccc1)NC(=O)[C@@H](NC(=O)[C@H](CO)NC(=O)OC(C)(C)C)C(C)C | 15 | 100 |
| CCOC(=O)/C=C/[C@H](C[C@@H]1CCNC1=O)NC(=O)[C@H](Cc1ccccc1)NC(=O)[C@@H](NC(=O)c1cc(C)on1)C(C)C | 300 |  |
| CCOC(=O)/C=C/[C@H](C[C@@H]1CCNC1=O)NC(=O)[C@H](CC=C(C)C)CC(=O)[C@@H](NC(=O)[C@H](CO)NC(=O)OC(C)(C)C)C(C)C | 80 | 75 |
| CCOC(=O)/C=C/[C@H](C[C@@H]1CCNC1=O)NC(=O)[C@H](CC(C)C)NC(=O)[C@@H](NC(=O)c1cc(C)on1)C(C)C | 200 |  |
| CCOC(=O)/C=C/[C@H](C[C@@H]1CCNC1=O)NC(=O)[C@H](CC(C)C)NC(=O)[C@@H](NC(=O)[C@H](CO)NC(=O)OC(C)(C)C)C(C)C | 10 | 100 |
